The results in this text go back to patent publication US7314621B2, “Cytidine deaminase” (Kyoto University, priority 1999, dated 2008).

The target of assay [1] is T1, AID protein (Mus musculus, UniProt Q9WVE0).
T1 construct: a full length AID cDNA was expressed as a fusion protein with glutathione S-transferase (GST); made in house; host or cells: E. coli DH5alpha
Kind of assay: Inhibition of the cytidine deaminase activity of the AID-GST fusion protein. Format: biochemical. Particulars: for inhibition of the cytidine deaminase activity of AID protein: 20 mM printed for 1,10-o-phenanthroline, both isomers tested 0 to 20 mM; for inhibition of the cytidine deaminase activity of AID protein (in words): zinc chelator and inactive isomer. The method, then: The purified AID-GST fusion protein prepared in the above (2, 4, 6, 8, 10, 20, 40, 60, 100, 200, 300, 400, and 600 ng) was incubated in the buffer (pH 7.5, the total amount 10 μl) containing 45 mM Tris with 3.3 μCi [^3H] deoxycytidine (24.8 Ci/mmol, DuPont) and 250 μM cytidine for 2 to 4 hours. The reaction was terminated by adding deoxycytidine (2 μl of 10 μg/ml) and deoxyuridine (2 μl of 10 μg/ml). Insoluble substances were removed by centrifugation, and the reaction mixture (4 μl) was subjected to the polyethylene imine-cellulose thin layer chromatography plate (VWR). The plate was developed in isopropyl alcohol/10% HCl (7:2 v/v). The plate was exposed to ultraviolet light (254 nm) for visualization and bands corresponding to deoxycytidine and deoxyuridine were collected, and added to Ultima Gold scintillation solution to be quantified by liquid scintillation photometer (Packard)

The subject of assay [2] is mouse B cell clone CH12F3-2. Kind of assay: Production of looped-out circular DNA by class switch recombination (PCR, Southern hybridization). Format: cell-based. Particulars: cycloheximide 200 ng/ml, 6 hours, stimulation with IL-4, TGF-β, CD40L. The method, then: CH12F3-2 B cells, either stimulated by IL-4, TGF-β, and CD40L or unstimulated, were cultured for 6 hours in the presence or absence of cycloheximide (200 ng/ml) which is a protein synthesis inhibitor, respectively. Genomic DNA was extracted from each cell, and PCR was conducted with the DNA as a template following standard methods to amplify circular DNA including an Sμ sequence and an Sα sequence. PCR was conducted using pairs of primers, αF1 and […], or αF1 and […].
As a control, genomic DNA encoding glyceraldehyde-3-phosphate dehydrogenase (GAPDH) was amplified by PCR.
The PCR products were subjected to gel electrophoresis and ethidium bromide staining. FIG. 1(a) and FIG. 2(a) show the results.
To confirm the presence or absence of the amplification of a circular DNA including the looped-out S region, Southern hybridization was conducted against the PCR products using a mouse Sa region gene as a hybridization probe, according to standard methods (L. Sambrook E. F., Tom Maniatis., Second edition, Ed. Molecular Cloning (Nolan, C., Ed.) Cold Spring Harbor, 1989). A 1,155 bp DNA fragment obtained by digesting 10 kb EcoRI cleaved fragment IgH703 with Hind III and Earl was used as an Sα gene (Genbank #D11468, DNA No. 1993-3148) (J, Biol. Chem., Vol. 268, p. 4651-4665). FIGS. 1(b) and 2(b) show the results.

Assay [3] deals with AID mRNA in mouse B cell clone CH12F3-2. Kind of assay: Cytokine-induced AID (23C9) mRNA expression, Northern blotting. The note with it: cycloheximide 200 ng/ml, 12 hours, IL-4, TGF-β, CD40L. Format: cell-based. The method, then: The degree of enhanced expression of the gene coding for a novel protein 23C9 in mouse B cell clone CH12F3-2 stimulated with IL-4, TGF-β and CD40L was analyzed according to the standard method (L. Sambrook, E. F., Tom Maniatis., Second edition, Ed. Molecular Cloning (Nolan, C., Ed.), Cold Spring Harbour, 1989) by Northern blotting.
Mouse B cell clone CH12F3-2 was cultured in the presence of one of the following regents for 12 hours. • (1) IL-4, TGF-β and CD40L only. • (2) Cycloheximide which is a protein synthesis inhibitor (200 ng/ml), only • (3) IL-4, TGF-β and CD40L as well as Cycloheximide (200 ng/ml)
Northern blotting was conducted against mRNA (10 μg for each group) obtained in the same manner as previously reported (Nucleic Acid Res., 26:911-918, 1998) from each group of treated cells using a radio-labeled cDNA fragment (1,020 bp) coding for a novel protein 23C9, obtained in the above Example, according to the standard method (L. Sambrook, E. F., Tom Maniatis., Second edition, Ed. Molecular Cloning (Nolan, C., Ed.), Cold Spring Harbour, 1989).
As a control experiment, Northern blotting was conducted for mRNA derived from B cell clone CH12F3-2 cultured without any one of the above cytokines, or cycloheximide.
The amount of mRNA to be electrophoresed was adjusted using the amount of mRNA for glyceraldehyde-3-phosphate dehydrogenase (GAPDH) as an index. […]

T1 sequence (Q9WVE0 whole entry, the tested form may be a part): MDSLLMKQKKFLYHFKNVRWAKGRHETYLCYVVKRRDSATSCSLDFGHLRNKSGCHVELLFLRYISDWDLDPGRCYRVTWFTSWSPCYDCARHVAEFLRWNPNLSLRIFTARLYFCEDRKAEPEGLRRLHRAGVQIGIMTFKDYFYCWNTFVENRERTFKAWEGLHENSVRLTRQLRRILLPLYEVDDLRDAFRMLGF

For the molecule `c1cnc2c(c1)ccc1ncccc12` [1,7-o-phenanthroline], in assay [1], the “inhibition of the cytidine deaminase activity of AID protein” value was “about 13%” and the “inhibition of the cytidine deaminase activity of AID protein (in words)” value is “weak inhibition”.

With `c1cnc2c(c1)ccc1cccnc12` [1,10-o-phenanthroline], in assay [1], the “inhibition of the cytidine deaminase activity of AID protein” value was “about 91%” and the “inhibition of the cytidine deaminase activity of AID protein (in words)” value is on record as “inhibits”.

As to `C[C@@H]1C[C@@H]([C@H](O)CC2CC(=O)NC(=O)C2)C(=O)[C@@H](C)C1` [cycloheximide], the “production of looped-out DNA containing the Sα sequence with class switch recombination” value in assay [2] was “inhibited”. For the same molecule, the “induction of AID mRNA expression by cytokines” value in assay [3] was “can be inhibited”.
